Assay results as given in US10517889B2, “Modulators of SMAD7 expression” (Ionis Pharmaceuticals, Inc., priority 2017, dated 2019).
Strand notation (5' to 3'): a small letter for the sugar, then the base; units joined by * are phosphorothioate-linked, units joined directly phosphodiester-linked; [ ] holds rarer units or linkages, { } end groups; capitals alone tell only the bases. e = 2'-O-(2-methoxyethyl) (MOE); [5mC] = 5-methylcytosine; d = 2'-deoxy (DNA)

Experiments:
[1] = tested on: human SMAD7 mRNA; assay: Antisense inhibition of human SMAD7 mRNA expression in Hep3B cells by 5-10-5 MOE gapmers, single concentration, electroporation, RT-PCR (Example 1, Study 1 and 2); type: cell-based
In short: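 Hep3B cells (20,000/well) electroporated with 5-10-5 MOE gapmer at 5,000 nM or 15,000 nM for approximately 24 h. SMAD7 mRNA quantified by real-time PCR with primer probe set RTS5062 and normalized to RIBOGREEN total RNA. Values are percent inhibition relative to untreated controls.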

[2] = tested on: human SMAD7 mRNA; assay: Dose-dependent inhibition of human SMAD7 mRNA expression in Hep3B cells (Example 3, Study 1 and 2); type: cell-based; conditions: electroporation; for % inhibition of SMAD7 mRNA expression: approximately 16 hours; for IC50: Study 1 (312.5-20000 nM)
In short: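 Hep3B cells, 20,000 per well, electroporated with antisense oligonucleotide at 0.31, 1.25, 5.00 or 20.00 μM (first series) or 0.74, 2.22, 6.67 or 20.00 μM (second series). After ~16 h, SMAD7 mRNA measured by RT-qPCR (RTS5062), normalised to RIBOGREEN total RNA. Percent inhibition vs untreated cells; IC50 derived.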

[3] = electroporation with 15,000 nM antisense oligonucleotide (Study 2), 5-10-5 MOE gapmers targeting SEQ ID NO: 1 and 2
[4] = electroporation, 15,000 nM antisense oligonucleotide (Study 2), 5-10-5 MOE gapmers targeting SEQ ID NO: 1 and 2
[5] = 312.5 nM, Study 1, relative to untreated control cells
[6] = electroporation, 15,000 nM, approximately 24 hours, relative to untreated control cells, gapmers targeting SEQ ID NO: 1 and 2
[7] = Study 2, electroporation with 15,000 nM antisense oligonucleotide, 5-10-5 MOE gapmers targeting SEQ ID NO: 1 and 2
[8] = electroporation, 5,000 nM, approximately 24 hours, relative to untreated control cells, gapmers targeting SEQ ID NO: 1 and 2

Substance | % Inhibition of SMAD7 mRNA [1, 3] | % inhibition of SMAD7 mRNA expression [1, 4] | % inhibition of SMAD7 mRNA expression [2, 5] | % inhibition of SMAD7 mRNA expression ([2]; 1250.0 nM, Study 1) | % inhibition of SMAD7 mRNA expression ([2]; 5000.0 nM, Study 1) | % inhibition of SMAD7 mRNA expression ([2]; 20000.0 nM, Study 1) | IC50 [2] | % inhibition of SMAD7 mRNA expression [1, 6] | % Inhibition [1, 7] | % inhibition of SMAD7 mRNA expression [1, 8] | % inhibition of SMAD7 mRNA expression [1, 3] | % inhibition of SMAD7 mRNA expression [1, 7]
771387 (antisense eA*eG*e[5mC]*eA*eT*d[5mC]*dT*dG*dG*dA*d[5mC]*dA*dG*dT*d[5mC]*eT*eG*e[5mC]*eT*eG) [compound 771387] | 59% | 6% | 8% | 13% | 28% | 70% | 10 µM | – | – | – | – | –
771509 (antisense eG*eG*e[5mC]*e[5mC]*eT*dG*d[5mC]*dT*d[5mC]*dA*dG*d[5mC]*dT*d[5mC]*dA*e[5mC]*eG*e[5mC]*eT*e[5mC]) [compound 771509] | – | – | 0% | 0% | 13% | 47% | > 20 µM | 65% | – | – | – | –
771777 (antisense e[5mC]*e[5mC]*e[5mC]*eT*e[5mC]*dA*dG*dT*d[5mC]*dT*d[5mC]*dA*dG*dA*dT*eA*eA*e[5mC]*eA*eG) [compound 771777] | – | 50% | 0% | 0% | 27% | 50% | 8 µM | – | – | – | – | –
771838 (antisense eG*eA*eA*e[5mC]*eT*d[5mC]*d[5mC]*dT*dG*d[5mC]*dA*dG*dG*dA*dT*eG*eA*eG*eG*eG) [compound 771838] | – | – | 0% | 24% | 26% | 43% | > 20 µM | – | 53% | – | – | –
771891 (antisense e[5mC]*eT*e[5mC]*e[5mC]*e[5mC]*dA*dA*dG*d[5mC]*d[5mC]*dT*dA*d[5mC]*dA*dT*eA*eT*eT*eT*e[5mC]) [compound 771891] | – | – | 0% | 0% | 10% | 33% | > 20 µM | – | 56% | 65% | – | –
278478 (antisense eA*e[5mC]*eA*eT*eG*dA*d[5mC]*d[5mC]*dT*d[5mC]*d[5mC]*dG*d[5mC]*dA*d[5mC]*eA*e[5mC]*e[5mC]*eA*eT) [compound 278478] | 54% | 18% | 0% | 9% | 19% | 22% | > 20 µM | – | – | – | – | –
771795 (antisense e[5mC]*eG*eT*e[5mC]*eT*dG*d[5mC]*dG*dG*d[5mC]*dA*dA*dA*dA*d[5mC]*e[5mC]*e[5mC]*eA*e[5mC]*e[5mC]) [compound 771795] | – | – | 9% | 22% | 51% | 58% | 8 µM | – | 59% | 53% | – | –
771937 (antisense eT*e[5mC]*e[5mC]*eA*eG*dT*dG*d[5mC]*dT*dT*dG*dT*dG*d[5mC]*dA*eT*eG*eT*eG*e[5mC]) [compound 771937] | – | 52% | 0% | 0% | 4% | 41% | > 20 µM | – | – | – | – | –
771399 (antisense eG*e[5mC]*e[5mC]*e[5mC]*eG*dG*dG*d[5mC]*dA*dG*dG*dA*dG*d[5mC]*dG*eG*e[5mC]*eG*eG*e[5mC]) [compound 771399] | – | – | 0% | 6% | 26% | 53% | > 20 µM | – | 33% | – | – | –
771885 (antisense e[5mC]*eA*eA*eG*eT*d[5mC]*dT*d[5mC]*dT*dT*dA*d[5mC]*d[5mC]*dT*d[5mC]*eA*e[5mC]*e[5mC]*e[5mC]*eA) [compound 771885] | – | – | 0% | 4% | 20% | 45% | > 20 µM | 60% | – | – | – | –
771610 (antisense eA*e[5mC]*e[5mC]*eT*eG*dA*dT*dG*dT*d[5mC]*dA*d[5mC]*d[5mC]*dA*dG*eG*eG*e[5mC]*eA*eG) [compound 771610] | – | – | 0% | 0% | 37% | 38% | > 20 µM | – | – | – | 52% | –
771815 (antisense e[5mC]*eT*e[5mC]*e[5mC]*e[5mC]*dT*dT*dT*dT*d[5mC]*dA*d[5mC]*dT*dG*d[5mC]*eT*e[5mC]*e[5mC]*eA*e[5mC]) [compound 771815] | – | – | 0% | 0% | 22% | 46% | > 20 µM | – | 70% | – | – | –
771762 (antisense eG*eT*e[5mC]*eA*e[5mC]*d[5mC]*dA*d[5mC]*d[5mC]*dG*dA*dT*dG*d[5mC]*dA*eT*e[5mC]*e[5mC]*eA*eA) [compound 771762] | – | 72% | 0% | 0% | 38% | 67% | – | – | – | – | – | –
771671 (antisense eT*e[5mC]*eA*eG*eG*dA*dG*dT*d[5mC]*d[5mC]*dT*dT*dT*d[5mC]*dT*e[5mC]*eT*e[5mC]*eT*e[5mC]) [compound 771671] | – | – | 0% | 9% | 27% | 49% | > 20 µM | – | – | – | – | 69%
771773 (antisense eT*e[5mC]*eT*eT*eT*dT*d[5mC]*dG*d[5mC]*dA*dT*d[5mC]*d[5mC]*dT*d[5mC]*eA*eG*eG*eA*eA) [compound 771773] | – | – | 0% | 0% | 0% | 42% | > 20 µM | 57% | – | – | – | –
771734 (antisense e[5mC]*eT*e[5mC]*eA*eA*dA*d[5mC]*d[5mC]*dT*dT*dT*d[5mC]*dA*dG*dA*e[5mC]*e[5mC]*eA*eT*e[5mC]) [compound 771734] | – | – | 0% | 0% | 30% | 53% | > 20 µM | – | 64% | – | – | –
771799 (antisense e[5mC]*eT*eT*e[5mC]*e[5mC]*dA*dA*d[5mC]*dA*d[5mC]*dA*dT*dG*d[5mC]*dT*e[5mC]*eT*eG*e[5mC]*eA) [compound 771799] | – | – | 0% | 8% | 28% | 48% | > 20 µM | – | 57% | – | – | –
771397 (antisense eG*eA*eG*e[5mC]*eG*dG*d[5mC]*dG*dG*d[5mC]*dG*dG*d[5mC]*d[5mC]*d[5mC]*eG*eA*eG*eG*eG) [compound 771397] | – | 55% | 0% | 0% | 41% | 51% | 15 µM | – | – | – | – | –
